{"source": "patent US7186703B2", "about": "“Derivatives of branched-chain lipophilic molecules and uses thereof” (D-Pharm Ltd., priority 2000, dated 2007)", "key": {"[1]": {"test_system": "DNA fragmentation in Neuro2a neuroblastoma cells", "test": "DNA fragmentation in Neuro2a cells (Cell Death Detection Elisa)", "type": "cell-based, mouse", "conditions": "for DNA fragmentation (OD405 nm): 24 hours, Neuro2a (control 0.030)", "experimental": "(§1) In order to further explore the possible mechanism underlying the cytotoxic effect exerted by the various DP-BFAs, two established markers for apoptosis, caspase-3 activity and DNA fragmentation (Lincz (1998) Immunol. Cell Biol. 76: 1–19), were studied.\n(§2) Neuro2a neuroblastoma cells (ATCC, CCL-131) were seeded in MEM containing 2 mM L-glutamine, 100 units/ml penicillin, 100 ug/ml streptomycin and 10% FCS at 37° C. 24 hours later, when cells were in logarithmic growth phase, 3,12-DEG-PC was added to a final concentration of 25 μM, 50 μM or 100 μM. Cells grown in the presence of vehicle only served as control group.\n(§3) Assays for caspase-3 activity and DNA-fragmentation were performed on cell lysates obtained following, respectively, 6 and 24 hours incubation with the drug. Caspase-3 activity was assayed using the fluorogenic substrate Ac-DEVD-AMC (Pharmingen, Becton Dickinson, cat. no. 66081U) and following the manufacture's instructions. DNA-fragmentation was quantified by using the Cell Death Detection Elisa plus kit (Roche, cat. no. 1774 425) and following the manufacture's instructions.\n(§4) The measured caspase activity is expressed as percentage of the activity in the control plates normalized to protein content. DNA-fragmentation is expressed as OD values at λ=405 nm and is an average of readings from duplicate cell culture lysates."}, "[2]": {"test_system": "caspase-3 activity in Neuro2a neuroblastoma cells", "test": "Caspase-3 activity in Neuro2a cell lysates (Ac-DEVD-AMC substrate)", "type": "cell-based, mouse", "experimental": "as §1, §2, §3, §4"}}, "data": [{"smiles": "CCCCCCCCCCCCC(CCC)C(=O)OCCOCCOP(=O)([O-])OCC[N+](C)(C)C", "note": "(stereo not shown) [3,12-DEG-PC, 2-(2′-Propyltetradecanoyloxy)ethoxyethylphosphocholine]", "values": [{"measurement": "DNA fragmentation (OD405 nm)", "setting": "[1]; 25 μM", "result": 0.036, "unit": "OD405 nm"}, {"measurement": "DNA fragmentation (OD405 nm)", "setting": "[1]; 50 μM", "result": 0.153, "unit": "OD405 nm"}, {"measurement": "DNA fragmentation (OD405 nm)", "setting": "[1]; 100 μM", "result": 0.389, "unit": "OD405 nm"}, {"measurement": "DNA fragmentation (in words)", "setting": "[1]; Neuro2a cells", "result": "significant increase in DNA fragmentation"}, {"measurement": "activity at 25 µM", "setting": "[2]; Mus musculus, N2a, 25 μM, 6 hours, Neuro2a, normalized to protein content, read-out: Caspase activity (% of control)", "result": 210, "unit": "%"}, {"measurement": "activity at 50 µM", "setting": "[2]; Mus musculus, N2a, 50 μM, 6 hours, Neuro2a, normalized to protein content, read-out: Caspase activity (% of control)", "result": 540, "unit": "%"}, {"measurement": "increase in caspase-3 activity", "setting": "[2]; Neuro2a cells", "result": "about 5 fold"}]}]}
